Test results reported in ChEMBL document CHEMBL5725438, “Tetrazole derivatives and their use as potassium channel modulators” (2017).

Molecular target: Intermediate conductance calcium-activated potassium channel protein 4 (Homo sapiens, UniProt O15554)
Assay: Inhibition Assay: Human HEK293 cells over-expressing human IK are grown in culture medium (DMEM supplemented with 10% foetal bovine serum), in polystyrene culture flasks ([…]) in a humidified atmosphere of 5% CO2 in air, at 37° C. Cell confluence should be 80-90% on day of plating. Cells are rinsed with 4 mL of PBS (phosphate buffered saline) and incubated 2 min with 1 mL of Trypsin-EDTA. After addition of 25 mL of culture medium cells are re-suspended by trituration with a 25 mL pipette.The cells are seeded at a density of 3×10^6 cells/mL (25 μL/well) in black-walled, clear bottom, 384-well plates pre-treated with 0.01 g/L poly-D-lysin (20 μL/well for ≧30 min). Plated cells were allowed to proliferate for 24 h before loading with dye.BTC-AM ([…], Invitrogen) is added 25.5 μl DMSO. The BTC-AM stock solution (2 mM) is diluted to a final concentration of 2 μM in Cl+ free assay buffer (in mM: 140 Na+-gluconate, 2.5 K+-gluconate, 6 Ca2+-gluconate, 1 Mg2+ gluconate, 5 glucose, 10 HEPES, pH 7.3) containing 2 μM ouabain, 2 mM amaranth and 1 mM tartrazine.The culture medium is aspirated from the wells, and 25 μl of the BTC-AM loading solution are added to each well. The cells are incubated at 37° C. for 60 min.After the loading period, the Tl+-sensitive BTC fluorescence signal is measured over time using a FLIPR.

Chain of Intermediate conductance calcium-activated potassium channel protein 4 (O15554 whole entry): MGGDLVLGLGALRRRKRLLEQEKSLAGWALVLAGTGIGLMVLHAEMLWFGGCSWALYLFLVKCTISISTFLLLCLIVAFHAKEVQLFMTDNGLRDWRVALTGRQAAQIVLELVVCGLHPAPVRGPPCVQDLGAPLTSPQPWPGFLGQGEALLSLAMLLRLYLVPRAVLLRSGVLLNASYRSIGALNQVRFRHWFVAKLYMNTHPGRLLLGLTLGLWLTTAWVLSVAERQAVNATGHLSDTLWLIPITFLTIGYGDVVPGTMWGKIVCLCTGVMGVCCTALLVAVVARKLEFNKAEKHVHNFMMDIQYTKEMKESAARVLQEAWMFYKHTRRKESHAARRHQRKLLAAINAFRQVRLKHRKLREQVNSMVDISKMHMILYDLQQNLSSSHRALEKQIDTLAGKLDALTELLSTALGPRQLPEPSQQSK

COCCNc1ccccc1-c1ccccc1-c1nnnn1-c1ccccc1F
IC50: 680 nM
